# Reference: patent publication US11890295B2, “Helicobacter pylori eradication method including step for orally administering composition including complex of non-absorbable antibiotic and clay mineral to subject” (KOREA INSTITUTE OF GEOSCIENCE AND MINERAL RESOURCES, priority 2018, dated 2024)
# Key:
# [1] = tested on: clarithromycin-resistant strain; test: MIC of clarithromycin for the clarithromycin-resistant strain; format: cell-based; settings: Helicobacter pylori
# [2] = tested on: Clarithromycin-resistant Helicobacter pylori bacteria; test: in vitro eradication activity on resistant strain, disk on medium; format: cell-based; settings: twice repeated tests
# Description: Clarithromycin-resistant Helicobacter pylori bacteria were applied on a medium (red), and a sample was made in the form of a disk and placed on the medium to measure an eradicating effect. At this time, if the red color disappeared around the disk, it means that there was the eradicating effect.
# [3] = tested on: H. pylori, 187 culture-positive clinical strains; test: antibiotic resistant rate from in vitro MIC on clinical strains; format: cell-based, Helicobacter pylori; settings: based on MIC 1 μg/mL
# Procedure: In virto MIC for non-absorbable antibiotic candidates (gentamicin, netilmicin, tobramycin, and amikacin) to be used as novel therapeutic agents was measured by making complexes with antibiotics (amoxicillin, clarithromycin, metronidazole, levofloxacin, and tetracyclin) that were actually used for Helicobacter eradicating treatment in clinical trials and smectite, and MIC50 and MIC90 were identified. For this end, 187 culture-positive clinical strains obtained from 1,265 patient specimens were used.
Molecule,MIC [1] [µg/mL],clear zone around disk (eradication activity) [2],resistant rate of H. pylori [3] [%]
CC[C@H]1OC(=O)[C@H](C)[C@@H](O[C@H]2C[C@@](C)(OC)[C@@H](O)[C@H](C)O2)[C@H](C)[C@@H](O[C@@H]2O[C@H](C)C[C@H](N(C)C)[C@H]2O)[C@](C)(OC)C[C@@H](C)C(=O)[C@H](C)[C@@H](O)[C@]1(C)O [clarithromycin],48,no clear zone,–
gentamicin,–,–,2.78
